The results in this text go back to publication PMC7224190, “Pharmacological inhibition of PRMT7 links arginine monomethylation to the cellular stress response” (Nature Communications, 2020).

Holding throughout (assay): biochemical
Set-up in all cases: radiometric methyltransferase selectivity assay with tritiated SAM, per cent activity
Common to all, as to settings: read-out: % of control remaining

In one assay the target is T1, SETD7 (Homo sapiens, UniProt Q8WTS6).
T1 sequence (Q8WTS6 1-366): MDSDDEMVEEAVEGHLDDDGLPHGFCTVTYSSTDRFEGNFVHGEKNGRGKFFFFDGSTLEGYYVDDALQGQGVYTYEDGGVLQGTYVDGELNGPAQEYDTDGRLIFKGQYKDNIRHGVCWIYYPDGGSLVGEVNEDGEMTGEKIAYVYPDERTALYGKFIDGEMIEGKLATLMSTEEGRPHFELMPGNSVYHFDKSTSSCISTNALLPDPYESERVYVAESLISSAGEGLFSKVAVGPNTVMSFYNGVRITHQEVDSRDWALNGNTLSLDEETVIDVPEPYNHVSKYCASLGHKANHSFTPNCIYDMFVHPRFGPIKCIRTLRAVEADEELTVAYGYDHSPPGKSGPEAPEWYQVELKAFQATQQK
The method, boiled down: (§1)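 Radiometric methyltransferase assays with ³H-SAM and substrate near apparent Km, compound tested at 1 and 10 μM. Methyl incorporation into biotinylated substrate read by scintillation proximity after guanidine quench; no-compound = 100%, no-enzyme = 0% activity.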

The target in another assay is T2, PRMT4 (Homo sapiens, UniProt Q86X55).
T2 construct: gene CARM1
T2 sequence (Q86X55 1-608): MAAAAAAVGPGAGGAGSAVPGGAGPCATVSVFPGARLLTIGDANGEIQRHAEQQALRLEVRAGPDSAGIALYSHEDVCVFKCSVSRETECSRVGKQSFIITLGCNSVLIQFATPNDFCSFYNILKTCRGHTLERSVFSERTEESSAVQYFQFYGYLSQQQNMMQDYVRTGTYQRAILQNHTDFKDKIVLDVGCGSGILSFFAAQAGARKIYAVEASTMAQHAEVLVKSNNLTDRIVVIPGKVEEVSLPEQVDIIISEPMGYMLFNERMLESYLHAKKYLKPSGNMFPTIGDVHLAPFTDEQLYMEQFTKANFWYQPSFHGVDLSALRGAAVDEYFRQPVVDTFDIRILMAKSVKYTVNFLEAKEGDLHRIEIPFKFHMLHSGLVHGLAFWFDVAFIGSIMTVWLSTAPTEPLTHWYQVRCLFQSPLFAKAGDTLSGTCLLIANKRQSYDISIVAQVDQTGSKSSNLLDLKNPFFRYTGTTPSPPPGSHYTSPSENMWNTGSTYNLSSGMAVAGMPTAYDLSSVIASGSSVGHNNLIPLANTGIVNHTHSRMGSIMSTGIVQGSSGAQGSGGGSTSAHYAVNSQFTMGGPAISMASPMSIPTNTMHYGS
In short, it runs like this:
as §1

Another assay concerns the target T3, SUV39H1 (Homo sapiens, UniProt O43463).
T3 sequence (O43463 1-412): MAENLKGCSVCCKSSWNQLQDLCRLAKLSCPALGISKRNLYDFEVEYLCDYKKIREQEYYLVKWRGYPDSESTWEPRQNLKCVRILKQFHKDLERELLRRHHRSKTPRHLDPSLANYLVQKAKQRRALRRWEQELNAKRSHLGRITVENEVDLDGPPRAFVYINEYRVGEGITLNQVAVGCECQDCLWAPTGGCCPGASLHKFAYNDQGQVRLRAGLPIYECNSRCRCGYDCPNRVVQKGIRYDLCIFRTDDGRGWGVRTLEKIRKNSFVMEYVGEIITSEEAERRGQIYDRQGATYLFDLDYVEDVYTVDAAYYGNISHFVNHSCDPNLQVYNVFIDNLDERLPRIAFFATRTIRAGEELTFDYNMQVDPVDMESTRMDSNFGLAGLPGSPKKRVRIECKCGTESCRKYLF
In short, it runs like this:
as §1

The next assay has as its target T4, SETD8 (Homo sapiens, UniProt Q9NQR1).
T4 construct: gene KMT5A
T4 sequence (Q9NQR1 1-393): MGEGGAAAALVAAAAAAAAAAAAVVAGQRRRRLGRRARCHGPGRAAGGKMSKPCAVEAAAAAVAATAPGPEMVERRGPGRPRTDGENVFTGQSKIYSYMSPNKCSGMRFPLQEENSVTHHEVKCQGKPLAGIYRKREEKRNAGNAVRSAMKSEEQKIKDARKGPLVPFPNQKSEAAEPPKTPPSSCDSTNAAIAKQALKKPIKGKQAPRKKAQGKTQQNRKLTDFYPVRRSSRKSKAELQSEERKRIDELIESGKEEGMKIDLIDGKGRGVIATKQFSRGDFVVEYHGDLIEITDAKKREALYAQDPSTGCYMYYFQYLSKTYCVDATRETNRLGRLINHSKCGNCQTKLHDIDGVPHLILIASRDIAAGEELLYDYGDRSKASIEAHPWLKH
The method, boiled down: as §1

The target in a further assay is DNMT3A/3L (Homo sapiens, UniProt Q9Y6K1).
DNMT3A/3L, sequence (Q9Y6K1 whole entry, looked up): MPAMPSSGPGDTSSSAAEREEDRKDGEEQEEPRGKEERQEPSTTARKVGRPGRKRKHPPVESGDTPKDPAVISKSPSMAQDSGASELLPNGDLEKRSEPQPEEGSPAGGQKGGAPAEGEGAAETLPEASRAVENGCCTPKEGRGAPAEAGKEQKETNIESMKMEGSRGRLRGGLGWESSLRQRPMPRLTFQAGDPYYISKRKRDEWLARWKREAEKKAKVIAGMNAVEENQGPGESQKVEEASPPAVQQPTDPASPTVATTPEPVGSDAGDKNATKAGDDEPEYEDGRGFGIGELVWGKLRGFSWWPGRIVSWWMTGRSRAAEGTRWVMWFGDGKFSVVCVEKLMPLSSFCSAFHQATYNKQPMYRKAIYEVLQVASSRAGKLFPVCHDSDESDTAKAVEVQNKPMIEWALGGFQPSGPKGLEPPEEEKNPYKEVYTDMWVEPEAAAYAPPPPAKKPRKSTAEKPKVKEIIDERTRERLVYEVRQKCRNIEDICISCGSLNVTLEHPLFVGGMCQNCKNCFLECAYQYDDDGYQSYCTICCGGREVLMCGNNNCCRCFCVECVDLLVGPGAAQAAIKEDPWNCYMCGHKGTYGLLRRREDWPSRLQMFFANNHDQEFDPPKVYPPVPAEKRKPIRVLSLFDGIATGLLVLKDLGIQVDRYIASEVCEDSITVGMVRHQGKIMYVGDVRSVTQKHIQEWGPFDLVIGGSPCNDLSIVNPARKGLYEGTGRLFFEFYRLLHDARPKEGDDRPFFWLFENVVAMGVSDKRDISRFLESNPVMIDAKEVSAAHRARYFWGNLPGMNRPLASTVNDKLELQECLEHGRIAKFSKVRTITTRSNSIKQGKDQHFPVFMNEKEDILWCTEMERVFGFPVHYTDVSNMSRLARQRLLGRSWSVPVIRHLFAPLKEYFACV
DNMT3A/3L, sequence (Q9UJW3 whole entry partner): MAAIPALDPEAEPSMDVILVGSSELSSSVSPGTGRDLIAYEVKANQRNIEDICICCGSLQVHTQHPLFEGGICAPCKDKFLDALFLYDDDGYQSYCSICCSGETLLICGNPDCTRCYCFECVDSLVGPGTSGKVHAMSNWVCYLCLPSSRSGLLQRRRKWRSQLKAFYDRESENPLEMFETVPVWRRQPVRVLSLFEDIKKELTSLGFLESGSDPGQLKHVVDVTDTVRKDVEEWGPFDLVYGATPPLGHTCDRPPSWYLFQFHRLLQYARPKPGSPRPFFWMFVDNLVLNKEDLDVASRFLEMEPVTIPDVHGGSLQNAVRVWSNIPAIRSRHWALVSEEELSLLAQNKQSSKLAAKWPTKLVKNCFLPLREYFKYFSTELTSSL

Molecules are shown by their SMILES.

Consider `CC1(C)O[C@@H]2[C@H](O1)[C@@H](CSCCCCNCc1cccc(-c3ccc(Cl)cc3)c1)O[C@H]2n1cnc2c(N)ncnc21` [SGC8158N], for which the remaining activity at 1 µM on SETD7 is 96%; on PRMT4, 101%; on SUV39H1, 98%; on SETD8, 99%; on DNMT3A/3L, 100%. The remaining activity at 10 µM is 89% on SETD7; 100% at PRMT4; 78% on SUV39H1; 100% on SETD8; 99% at DNMT3A/3L.

As for `Nc1ncnc2c1ncn2[C@@H]1O[C@H](CSCCCCNCc2cccc(-c3ccc(Cl)cc3)c2)[C@@H](O)[C@H]1O` [SGC8158], the remaining activity at 1 µM came out at 100% on SETD7; 7% on PRMT4; 94% on SUV39H1; 101% on SETD8; 100% at DNMT3A/3L. Moreover, the remaining activity at 10 µM at SETD7 stood at 100%; on PRMT4 it was 0%; on SUV39H1 it was 90%; at SETD8, 102%; on DNMT3A/3L, 99%.
